SMILES strings stand for the structures. Values after ≈ are worked out from the molar mass of the structure shown. Bounds are passed on as bounds.

The conditions of the data set: for aqueous solubility: pH 6.8.

Turning to `CCn1ncc(CN2CCC(c3nc(N(C)C)ncc3-c3ccc(OC)cc3)CC2)c1C`, the MDR1-MDCK efflux ratio is 15.6; the intrinsic clearance, human liver microsomes came out at 227 mL/min/kg; the intrinsic clearance, rat liver microsomes worked out at 831 mL/min/kg; the aqueous solubility (commonly the dissolved amount per volume that the medium holds) was determined as 52.6 µg/mL (≈ 121 µM).

Take `CCOc1ccc(CC(=O)N2CCC3(CC2)Nc2cc(C)ccc2-n2cccc23)cc1OCC`: the intrinsic clearance, human liver microsomes is 187 mL/min/kg and the intrinsic clearance, rat liver microsomes amounted to 956 mL/min/kg.

In the case of `Cc1cc(N2CCCC2)nc(C2CCCN(C)C2)n1` (stereo not drawn), the fraction unbound, human plasma came out at 1; the fraction unbound, rat plasma was found to be 0.727; the intrinsic clearance, human liver microsomes turned out to be 9.21 mL/min/kg; the intrinsic clearance, rat liver microsomes came out at 331 mL/min/kg.

Compound `CN1C(=O)c2ccc(C(=O)N3CCN(C4CCCCC4)CC3)cc2C1=O` came in with an intrinsic clearance, human liver microsomes of 18.5 mL/min/kg and an intrinsic clearance, rat liver microsomes of 137 mL/min/kg.

On to `CCN1CCC(CCNc2ncc(C)c(N(C)C)n2)CC1`, for which the MDR1-MDCK efflux ratio was determined as 11.5; the intrinsic clearance, human liver microsomes was no more than 4.74 mL/min/kg; the intrinsic clearance, rat liver microsomes is 323 mL/min/kg.

Consider `Cc1cccc(NC(=O)c2ccc3ccccc3c2)n1`, for which the MDR1-MDCK efflux ratio was 0.126; the intrinsic clearance, human liver microsomes worked out at 91.8 mL/min/kg; the intrinsic clearance, rat liver microsomes is 209 mL/min/kg; the aqueous solubility amounted to 1.17 µg/mL (≈ 4.46 µM).

For `N#Cc1cccnc1NCCc1ccc(F)cc1`, the MDR1-MDCK efflux ratio stood at 0.519; the intrinsic clearance, human liver microsomes worked out at 179 mL/min/kg; the intrinsic clearance, rat liver microsomes stood at 1150 mL/min/kg; the aqueous solubility worked out at 2.69 µg/mL (≈ 11.1 µM).

For the compound `CCCOc1c2c(nc3cc(C4CCOCC4)nn13)CCC2`, the MDR1-MDCK efflux ratio came to 22.3; the intrinsic clearance, human liver microsomes was no more than 4.74 mL/min/kg; the intrinsic clearance, rat liver microsomes was determined as 16.1 mL/min/kg.

On to `Cc1cc(Nc2ccc(F)cn2)cc(C2CCN(C(=O)COc3ccccc3)C2)n1` (stereo not drawn), for which the MDR1-MDCK efflux ratio was found to be 15.5; the intrinsic clearance, human liver microsomes amounted to 106 mL/min/kg; the intrinsic clearance, rat liver microsomes is 664 mL/min/kg.

`O=C(Nc1nc2ccccc2[nH]1)c1cccnc1` had an aqueous solubility of 0.2 µg/mL (≈ 0.839 µM).

As for `CN(c1ncc(F)cn1)[C@H]1CCCNC1`, the MDR1-MDCK efflux ratio is 0.438; the fraction unbound, human plasma was 1; the fraction unbound, rat plasma came out at 1; the intrinsic clearance, human liver microsomes was no more than 4.74 mL/min/kg. This compound came in with an intrinsic clearance, rat liver microsomes of no more than 10.7 mL/min/kg.

As to `CN(C)C(=O)CN1CCN(C(=O)c2ccc3ccccc3c2O)CC1`, the MDR1-MDCK efflux ratio was 2.35; the intrinsic clearance, human liver microsomes is no more than 4.74 mL/min/kg; the intrinsic clearance, rat liver microsomes is no more than 10.7 mL/min/kg; the aqueous solubility was found to be 43.9 µg/mL (≈ 129 µM).

Regarding `CCN1CCc2ncnc(N3CCNc4ccccc4C3)c2C1`, the MDR1-MDCK efflux ratio was found to be 1.78; the intrinsic clearance, human liver microsomes was no more than 4.74 mL/min/kg; the intrinsic clearance, rat liver microsomes came out at 105 mL/min/kg; the aqueous solubility turned out to be 52.1 µg/mL (≈ 168 µM).

Regarding `CC(C)(O)C(=O)N1CCC(c2ccc3c(NCc4ccccc4F)n[nH]c3n2)CC1`, the MDR1-MDCK efflux ratio turned out to be 15.4; the intrinsic clearance, human liver microsomes is 8.35 mL/min/kg; the intrinsic clearance, rat liver microsomes came to 69.8 mL/min/kg; the aqueous solubility stood at 29.2 µg/mL (≈ 70.9 µM).

The compound `CCC(C)(C)c1ccc(Oc2ccc(NC(=O)Nc3ccccc3OC)cc2)cc1` came in with an aqueous solubility of 0.43 µg/mL (≈ 1.06 µM).

As for `CCNC(=O)C1CN(c2nc(C3CC3)nc3c2CCC3)C1`, the MDR1-MDCK efflux ratio came out at 23.5; the intrinsic clearance, human liver microsomes was no more than 4.74 mL/min/kg; the intrinsic clearance, rat liver microsomes came out at 19.9 mL/min/kg; the aqueous solubility was determined as 45 µg/mL (≈ 157 µM).

As to `Cc1[nH]nc(CCC(=O)NCCCOC2CCCCC2)c1C`, the MDR1-MDCK efflux ratio stood at 18.2; the intrinsic clearance, human liver microsomes is 63.5 mL/min/kg; the intrinsic clearance, rat liver microsomes stood at 4360 mL/min/kg.

For the compound `O=C(NCCc1ccccc1)c1cnccn1`, the MDR1-MDCK efflux ratio was found to be 0.607; the intrinsic clearance, human liver microsomes came to 13.5 mL/min/kg; the intrinsic clearance, rat liver microsomes worked out at 29 mL/min/kg; the aqueous solubility was determined as 59.1 µg/mL (≈ 260 µM).

For `Cn1ccnc1-c1noc(NCc2ccccc2)n1`, the MDR1-MDCK efflux ratio was 1.21; the intrinsic clearance, human liver microsomes was determined as 5.04 mL/min/kg; the intrinsic clearance, rat liver microsomes was found to be 193 mL/min/kg.

On to `Cc1ccc(NC(=O)OC(C)(C)C)c2c1N(C(=O)[C@H]1CCCO1)CCC2`, for which the MDR1-MDCK efflux ratio was found to be 2.91; the intrinsic clearance, human liver microsomes is 33.6 mL/min/kg; the intrinsic clearance, rat liver microsomes stood at 377 mL/min/kg; the aqueous solubility is 32.2 µg/mL (≈ 89.3 µM).

For the compound `Cc1ccc(-n2nc(C(C)(C)C)cc2NC(=O)Nc2ccc(OCCN3CCOCC3)c3ccccc23)cc1`, the MDR1-MDCK efflux ratio was found to be 6.55; the intrinsic clearance, human liver microsomes is 373 mL/min/kg; the intrinsic clearance, rat liver microsomes amounted to 704 mL/min/kg; the aqueous solubility came to 16.6 µg/mL (≈ 31.6 µM).

Take `CN(C)C(=O)OCCN1CCC(c2c[nH]c3ncccc23)CC1`: the MDR1-MDCK efflux ratio was found to be 6.4; the intrinsic clearance, human liver microsomes was determined as 29.6 mL/min/kg; the intrinsic clearance, rat liver microsomes was 101 mL/min/kg; the aqueous solubility stood at 50 µg/mL (≈ 158 µM).

Turning to `Cc1cc2c(=O)n3c(nc2s1)CCNCC3`, the intrinsic clearance, human liver microsomes was no more than 4.74 mL/min/kg and the intrinsic clearance, rat liver microsomes was found to be 67.5 mL/min/kg.

For `Cc1ccc(-c2cn(CC3CCN(Cc4c[nH]c(C)n4)CC3)nn2)cc1`, the MDR1-MDCK efflux ratio amounted to 23.3; the intrinsic clearance, human liver microsomes was no more than 4.74 mL/min/kg; the intrinsic clearance, rat liver microsomes came out at 32.4 mL/min/kg; the aqueous solubility came out at 25 µg/mL (≈ 71.3 µM).

`O=C(NO)c1cnc(NC2(c3cccc(F)c3)CCCCC2)nc1` returned an intrinsic clearance, human liver microsomes of 14.4 mL/min/kg and an intrinsic clearance, rat liver microsomes of 306 mL/min/kg.

For `CCc1nc(COc2ccccc2Br)no1`, the aqueous solubility is 21.9 µg/mL (≈ 77.5 µM).

With `COc1ccc(CN2CCc3nc(-c4cccnc4)nc(O)c3C2)c(C)c1C`, the MDR1-MDCK efflux ratio turned out to be 3.34; the intrinsic clearance, human liver microsomes was determined as 19.2 mL/min/kg; the intrinsic clearance, rat liver microsomes amounted to 51.7 mL/min/kg; the aqueous solubility was 8.44 µg/mL (≈ 22.4 µM).

Turning to `CSc1cccc(-c2ccccc2-c2nnc(C)o2)c1`, the MDR1-MDCK efflux ratio came out at 0.652; the intrinsic clearance, human liver microsomes was found to be 145 mL/min/kg; the intrinsic clearance, rat liver microsomes turned out to be 2460 mL/min/kg; the aqueous solubility stood at 41.5 µg/mL (≈ 147 µM).

For the compound `CC(=O)Nc1ccc2nc(C)cc(O)c2c1`, the MDR1-MDCK efflux ratio stood at 1.55; the intrinsic clearance, human liver microsomes is no more than 4.74 mL/min/kg; the intrinsic clearance, rat liver microsomes is no more than 10.7 mL/min/kg; the aqueous solubility was determined as 38.7 µg/mL (≈ 179 µM).

For the compound `Cc1cccc(NC(=O)N2CCC(N3CC=CC3)CC2)c1Cl`, the MDR1-MDCK efflux ratio amounted to 0.517; the intrinsic clearance, human liver microsomes was 9.11 mL/min/kg; the intrinsic clearance, rat liver microsomes stood at 1040 mL/min/kg.

As to `Cc1ccn(-c2ccc3[nH]c4c(c3c2)CCCC4=O)n1`, the intrinsic clearance, human liver microsomes came out at 137 mL/min/kg; the intrinsic clearance, rat liver microsomes stood at 512 mL/min/kg; the aqueous solubility turned out to be 9.65 µg/mL (≈ 36.4 µM).

As to `Cc1nn(CCC#N)c(C)c1Oc1ccccc1O`, the MDR1-MDCK efflux ratio was 1.57; the intrinsic clearance, human liver microsomes was no more than 4.74 mL/min/kg; the intrinsic clearance, rat liver microsomes is 112 mL/min/kg; the aqueous solubility came out at 36.7 µg/mL (≈ 143 µM).

With `CCCc1cc(CNS(=O)(=O)c2cc(-c3cnc(C)o3)ccc2C)on1`, the MDR1-MDCK efflux ratio worked out at 7.7; the intrinsic clearance, human liver microsomes worked out at 392 mL/min/kg; the intrinsic clearance, rat liver microsomes was determined as 2500 mL/min/kg.

`CC(O)(C#Cc1ccc2c(c1)N(c1nc(N)ncc1Cl)CC2)c1nccs1` (stereo not drawn): the MDR1-MDCK efflux ratio is 5.75; the fraction unbound, human plasma was 0.00754; the fraction unbound, rat plasma was 0.0188; the intrinsic clearance, human liver microsomes stood at 72.5 mL/min/kg. Besides, the intrinsic clearance, rat liver microsomes was found to be 327 mL/min/kg.

`Cc1nccn1-c1ccc(F)cc1CNC(=O)C(C)C`: the MDR1-MDCK efflux ratio worked out at 22.2; the intrinsic clearance, human liver microsomes turned out to be 8.38 mL/min/kg; the intrinsic clearance, rat liver microsomes was 57.2 mL/min/kg; the aqueous solubility turned out to be 59.4 µg/mL (≈ 216 µM).

In the case of `CCOC(=O)N1CCC(Nc2nc3ccccc3s2)CC1`, the MDR1-MDCK efflux ratio amounted to 0.812; the intrinsic clearance, human liver microsomes amounted to 8.22 mL/min/kg; the intrinsic clearance, rat liver microsomes was determined as 294 mL/min/kg; the aqueous solubility amounted to 49.2 µg/mL (≈ 161 µM).

In the case of `Cc1cnc(-n2cnnc2)c(-c2cccc(Cl)c2Cl)c1`, the MDR1-MDCK efflux ratio is 2.25; the intrinsic clearance, human liver microsomes was found to be 6.9 mL/min/kg; the intrinsic clearance, rat liver microsomes came to 165 mL/min/kg; the aqueous solubility stood at 18.6 µg/mL (≈ 61 µM).

Consider `CC(C)c1cc(C(C)C)c(CC(=O)NS(=O)(=O)Oc2c(C(C)C)cccc2C(C)C)c(C(C)C)c1`, for which the MDR1-MDCK efflux ratio was found to be 4.45; the intrinsic clearance, human liver microsomes was 45.9 mL/min/kg; the intrinsic clearance, rat liver microsomes stood at 170 mL/min/kg.

Regarding `CC(=O)c1ccc2c(c1)CCN(CC1CCC3(CC1)OCCO3)CC2`, the MDR1-MDCK efflux ratio was 0.556; the intrinsic clearance, human liver microsomes was no more than 4.74 mL/min/kg; the intrinsic clearance, rat liver microsomes was 229 mL/min/kg.

Turning to `CCCc1cc(-c2nn3c(C4CCCC4)nnc3s2)n(C)n1`, the intrinsic clearance, human liver microsomes was 99.4 mL/min/kg; the intrinsic clearance, rat liver microsomes worked out at 2230 mL/min/kg; the aqueous solubility amounted to 13.5 µg/mL (≈ 42.5 µM).

`O=C(Nc1ccc(Cl)nc1)NC1CCN(C2CCCC2)CC1`: the MDR1-MDCK efflux ratio was 20.9; the intrinsic clearance, human liver microsomes was no more than 4.74 mL/min/kg; the intrinsic clearance, rat liver microsomes was no more than 10.7 mL/min/kg.

Regarding `CN(C)Cc1csc(-c2nccn2-c2ccc3c(c2)n(C)c(=O)n3C)c1`, the MDR1-MDCK efflux ratio was found to be 72.5; the intrinsic clearance, human liver microsomes is no more than 4.74 mL/min/kg; the intrinsic clearance, rat liver microsomes was 38.2 mL/min/kg; the aqueous solubility came to 31.4 µg/mL (≈ 85.6 µM).

Consider `O=C(CCc1ccco1)Nc1ccccc1OC(F)F`, for which the MDR1-MDCK efflux ratio is 0.533; the intrinsic clearance, human liver microsomes amounted to 116 mL/min/kg; the intrinsic clearance, rat liver microsomes was determined as 831 mL/min/kg; the aqueous solubility was 44.6 µg/mL (≈ 159 µM).

On to `Cc1ccc2nc3c(c(C(=O)NCc4nnc5n4CCC5)c2c1)CCCC3`, for which the MDR1-MDCK efflux ratio was 32.9; the intrinsic clearance, human liver microsomes is no more than 4.74 mL/min/kg; the intrinsic clearance, rat liver microsomes amounted to 28.8 mL/min/kg; the aqueous solubility is 57.1 µg/mL (≈ 158 µM).

For `CCOc1nc(-c2ccc(Cl)c(Cl)c2)n(-c2cccc(NC(=O)c3ccc(F)cc3)c2)n1`, the MDR1-MDCK efflux ratio is 2.67 and the aqueous solubility was determined as 0.25 µg/mL (≈ 0.53 µM).

`COc1cc(-c2cnc(NC3CC3)nc2-c2cccs2)nc(OC)n1` yielded an intrinsic clearance, human liver microsomes of 34.7 mL/min/kg and an intrinsic clearance, rat liver microsomes of 485 mL/min/kg.
